Measurements from PubChem BioAssay AID2060495 (Molecular Pharmacology Branch, DTP, NCI, 2025).

Tested on: 521955-158-R2-J5-PDC complex spheroid viability
Assay: Anticancer human tumor 521955-158-R2-J5-PDC patient-derived pancreatic carcinoma cell line growth inhibition [GQUAD]
Conditions: for IC50: curve of first compound; for viability, T/C: stronger effect = lower value
Summary of the method: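 Viability of tumor cells grown as complex spheroids with endothelial and stromal cells, exposed to drug combinations. Top concentration at or near clinical Cmax (else 10 microM), diluted in half-log increments.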

[1] = second compound 0.0316 µM, first compound 0.0316 µM
[2] = second compound 0.0316 µM, first compound 0.1 µM
[3] = second compound 0.0316 µM, first compound 0.316 µM
[4] = second compound 0.0316 µM, first compound 1 µM
[5] = second compound 0.0316 µM, first compound 3.16 µM
[6] = second compound 0.0316 µM, first compound 10 µM
[7] = second compound 0.1 µM, first compound 0.0316 µM
[8] = second compound 0.1 µM, first compound 0.1 µM
[9] = second compound 0.1 µM, first compound 0.316 µM
[10] = second compound 0.1 µM, first compound 1 µM
[11] = second compound 0.1 µM, first compound 3.16 µM
[12] = second compound 0.1 µM, first compound 10 µM
[13] = second compound 0.316 µM, first compound 0.0316 µM
[14] = second compound 0.316 µM, first compound 0.1 µM
[15] = second compound 0.316 µM, first compound 0.316 µM
[16] = second compound 0.316 µM, first compound 1 µM
[17] = second compound 0.316 µM, first compound 3.16 µM
[18] = second compound 0.316 µM, first compound 10 µM
[19] = second compound 1 µM, first compound 0.0316 µM
[20] = second compound 1 µM, first compound 0.1 µM
[21] = second compound 1 µM, first compound 0.316 µM
[22] = second compound 1 µM, first compound 1 µM
[23] = second compound 1 µM, first compound 3.16 µM
[24] = second compound 1 µM, first compound 10 µM
[25] = second compound 3.16 µM, first compound 0.0316 µM
[26] = second compound 3.16 µM, first compound 0.1 µM
[27] = second compound 3.16 µM, first compound 0.316 µM
[28] = second compound 3.16 µM, first compound 1 µM
[29] = second compound 3.16 µM, first compound 3.16 µM
[30] = second compound 3.16 µM, first compound 10 µM
[31] = second compound 10 µM, first compound 0.0316 µM
[32] = second compound 10 µM, first compound 0.1 µM
[33] = second compound 10 µM, first compound 0.316 µM
[34] = second compound 10 µM, first compound 1 µM
[35] = second compound 10 µM, first compound 3.16 µM
[36] = second compound 10 µM, first compound 10 µM
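Also: spheroids exposed to agents for one week before reading.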
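For viability, T/C in this document: 100% = DMSO vehicle control viability.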

Compound: C=CC(=O)N1CCN(c2nc(=O)n(-c3c(C)ccnc3C(C)C)c3nc(-c4c(O)cccc4F)c(F)cc23)C(C)C1 (stereo unspecified) + CN(C)c1ccc(Nc2c3ccc(NC(=O)CCN4CCCC4)cc3nc3cc(NC(=O)CCN4CCCC4)ccc23)cc1
- IC50 (second compound 0.0316 µM): > 10 µM
- IC50 (second compound 0.1 µM): > 10 µM
- IC50 (second compound 0.316 µM): > 10 µM
- IC50 (second compound 1 µM): > 10 µM
- IC50 (second compound 3.16 µM): > 10 µM
- IC50 (second compound 10 µM): > 10 µM
- viability, T/C [1]: 103%
- viability, T/C [2]: 94.1%
- viability, T/C [3]: 105%
- viability, T/C [4]: 96.8%
- viability, T/C [5]: 108%
- viability, T/C [6]: 101%
- viability, T/C [7]: 98.2%
- viability, T/C [8]: 105%
- viability, T/C [9]: 119%
- viability, T/C [10]: 111%
- viability, T/C [11]: 122%
- viability, T/C [12]: 93.3%
- viability, T/C [13]: 91.7%
- viability, T/C [14]: 90.4%
- viability, T/C [15]: 101%
- viability, T/C [16]: 114%
- viability, T/C [17]: 101%
- viability, T/C [18]: 95.3%
- viability, T/C [19]: 90.3%
- viability, T/C [20]: 84.5%
- viability, T/C [21]: 94.1%
- viability, T/C [22]: 112%
- viability, T/C [23]: 100%
- viability, T/C [24]: 81.3%
- viability, T/C [25]: 71.7%
- viability, T/C [26]: 87.5%
- viability, T/C [27]: 85.5%
- viability, T/C [28]: 96.9%
- viability, T/C [29]: 96.7%
- viability, T/C [30]: 73.5%
- viability, T/C [31]: 77.5%
- viability, T/C [32]: 72.8%
- viability, T/C [33]: 72.5%
- viability, T/C [34]: 70.6%
- viability, T/C [35]: 101%
- viability, T/C [36]: 70.6%

Compound: C#Cc1c(F)ccc2cc(O)cc(-c3ncc4c(N5CC6CCC(C5)N6)nc(OCC56CCCN5CC(F)C6)nc4c3F)c12 (stereo unspecified) + Cc1[nH]c2ccc(F)cc2c1-c1nc2c3cccnc3c3ncccc3c2[nH]1
- IC50 (second compound 0.0316 µM): 1.64 µM
- IC50 (second compound 0.1 µM): > 10 µM
- IC50 (second compound 0.316 µM): 3.5 µM
- IC50 (second compound 1 µM): 7.53 µM
- IC50 (second compound 3.16 µM): 4.29 µM
- IC50 (second compound 10 µM): 1.04 µM
- viability, T/C [1]: 79.8%
- viability, T/C [2]: 68.6%
- viability, T/C [3]: 67.3%
- viability, T/C [4]: 40.5%
- viability, T/C [5]: 57%
- viability, T/C [6]: 36.3%
- viability, T/C [7]: 82.2%
- viability, T/C [8]: 81%
- viability, T/C [9]: 64.4%
- viability, T/C [10]: 45.1%
- viability, T/C [11]: 58.3%
- viability, T/C [12]: 46.4%
- viability, T/C [13]: 74.9%
- viability, T/C [14]: 67.4%
- viability, T/C [15]: 53%
- viability, T/C [16]: 61%
- viability, T/C [17]: 54%
- viability, T/C [18]: 42.7%
- viability, T/C [19]: 58.9%
- viability, T/C [20]: 72.2%
- viability, T/C [21]: 68.2%
- viability, T/C [22]: 57.5%
- viability, T/C [23]: 59.1%
- viability, T/C [24]: 47.4%
- viability, T/C [25]: 54.1%
- viability, T/C [26]: 58.5%
- viability, T/C [27]: 59.5%
- viability, T/C [28]: 50%
- viability, T/C [29]: 62.7%
- viability, T/C [30]: 30.9%
- viability, T/C [31]: 53.3%
- viability, T/C [32]: 55.4%
- viability, T/C [33]: 60.6%
- viability, T/C [34]: 47.4%
- viability, T/C [35]: 39.4%
- viability, T/C [36]: 26.6%

Compound: O=c1[nH]cc(F)c(=O)[nH]1 + CN(C)c1ccc(Nc2c3ccc(NC(=O)CCN4CCCC4)cc3nc3cc(NC(=O)CCN4CCCC4)ccc23)cc1
- IC50 (second compound 0.0316 µM): > 10 µM
- IC50 (second compound 0.1 µM): > 10 µM
- IC50 (second compound 0.316 µM): > 10 µM
- IC50 (second compound 1 µM): > 10 µM
- IC50 (second compound 3.16 µM): > 10 µM
- IC50 (second compound 10 µM): > 10 µM
- viability, T/C [1]: 103%
- viability, T/C [2]: 112%
- viability, T/C [3]: 97.8%
- viability, T/C [4]: 105%
- viability, T/C [5]: 109%
- viability, T/C [6]: 51.5%
- viability, T/C [7]: 91.3%
- viability, T/C [8]: 88.9%
- viability, T/C [9]: 95.9%
- viability, T/C [10]: 93.4%
- viability, T/C [11]: 95%
- viability, T/C [12]: 56.1%
- viability, T/C [13]: 91.3%
- viability, T/C [14]: 92.7%
- viability, T/C [15]: 108%
- viability, T/C [16]: 96.8%
- viability, T/C [17]: 94.4%
- viability, T/C [18]: 58.5%
- viability, T/C [19]: 80.9%
- viability, T/C [20]: 82.8%
- viability, T/C [21]: 86.1%
- viability, T/C [22]: 101%
- viability, T/C [23]: 94.8%
- viability, T/C [24]: 55.9%
- viability, T/C [25]: 86.4%
- viability, T/C [26]: 87.4%
- viability, T/C [27]: 97.1%
- viability, T/C [28]: 85%
- viability, T/C [29]: 93.9%
- viability, T/C [30]: 53.4%
- viability, T/C [31]: 58.5%
- viability, T/C [32]: 58.1%
- viability, T/C [33]: 75.3%
- viability, T/C [34]: 65.3%
- viability, T/C [35]: 66.1%
- viability, T/C [36]: 49.5%
